Like-named read-outs stand apart in the source and are kept apart here.
Experiments:
[1] = biological target: Recombinant full length PARP1 (Homo sapiens (Human), UniProt P09874); experiment: FP assay PARP1 (fluorescence anisotropy probe displacement); type: binding; settings: 20 nM PARP1, 8 nM fluorescent probe, 4 h, room temperature
Method: (§1) FP experiments were carried out at room temperature using no-binding black 384-well microplates. Recombinant full length PARP1 and PARP2 proteins produced in house were diluted to 20 nM and 60 nM, respectively, with assay buffer (50 mM Tris pH 8, 0.001% Triton X100, 10 mM MgCl2, and 150 mM NaCl) and incubated for 4 h with an equivalent volume of the 8 nM fluorescent probe diluted with assay buffer. Fluorescence anisotropy of the probe when bound to the proteins was measured in the presence of test compounds or solvent control and the effect on anisotropy determined. Polarization values were read using an Envision plate reader using excitation and emission wavelengths of 590 and 630 nm, respectively. All FP values are expressed as mP units. Inhibition ratio was calculated using readout (mP) following the equation as below: […]
(§2) % inhibition values for different test compound concentrations were calculated and fitted to a four parameter logistic plot in order to determine the IC50 value using XLfit.

[2] = biological target: Recombinant full length PARP2 (Homo sapiens (Human), UniProt Q9UGN5); experiment: FP assay PARP2 (fluorescence anisotropy probe displacement); type: binding; settings: 60 nM PARP2, 8 nM fluorescent probe, 4 h, room temperature
Method: as §1, §2

[3] = system: DLD1-BRCA2−/− cells; experiment: Cell proliferation assay in DLD1-BRCA2−/− cell lines (CellTiter-Glo, 7 days); type: cell-based
Method: BRCA2 (−/−) cells cultured in RPMI 1640+10% FBS were harvested and diluted to a density of 1×10^4 cells/mL and 2×10^4 cells/mL, respectively. Cells (40 μL/well) were seeded into 384-well cell culture plates. Plates were covered and incubated at 37° C., 5% CO2 overnight prior to the addition of test compounds or vehicle. The plates were then incubated at 37° C., 5% CO2 for 7 days. On day 8, the plates were removed from incubator and equilibrated at room temperature for 15 minutes. CellTiter-Glo (40 μL, at 1:1 to culture medium) is added into each well and the plates were placed at room temperature for 30 min. Luminescence was measured using an Envision plate reader. The resultant data were analysed as follows; where LC is culture medium without cells:
% inhibition values for different test compound concentrations were calculated and fitted to a four parameter logistic plot in order to determine the IC50 value using XLfit

[4] = Caco2 (A-B/B-A) permeability; type: in vitro ADME; settings: human; for efflux ratio at 120 min, 5 μM: Caco-2, pH 7.4, PappB-A/PappA-B, read-out: Caco2 efflux ratio (ER); for Papp A→B at 120 min, 5 μM: Caco-2, pH 7.4, apical-to-basolateral, read-out: Caco2 A-B apparent permeability (Papp); for Papp A→B at 120 min, 5 μM / Papp B→A at 120 min, 5 μM: HBSS pH 7.4, 120 min, 37° C.; for Papp B→A at 120 min, 5 μM: Caco-2, pH 7.4, basolateral-to-apical, read-out: Caco2 B-A apparent permeability (Papp)
Method: (§3) The apical-to-basolateral (A-B) and basolateral-to-apical (B-A) transport of 5 μM test compounds in HBSS (10 mM HEPES, pH 7.4) was measured across Caco-2 cell monolayers (cells sourced from American Type Culture Collection, Manassas, Virgina). Duplicate incubations were performed at approximately 37° C. for 120 min, with functionality of the test system confirmed using 5 μM propranolol and digoxin as control compounds. Aliquots (50 μL) from both apical and basolateral wells were transferred into two fresh 96-well plates and quenched with acetonitrile solution containing analytical internal standards. Samples were vortexed mixed, centrifuged and a 100 μL aliquot of the resulting supernatant mixed with an equal volume of ultra-pure water prior to analysis by UPLC-MS/MS. The concentrations of test compound and control compounds in the incubation medium of donor and receiver compartments at the beginning and the end of the incubation period were used to calculate the apparent permeability (Papp) from A-B and B-A directions. The efflux ratio (ER) was expressed as PappB-A/PappA-B. The integrity of the cell monolayers after 2 hours incubation was confirmed using the marker reagent Lucifer yellow.

[5] = system: Caco-2 cell monolayers; experiment: Caco2 (A-B/B-A) permeability; type: in vitro ADME; settings: for Caco2 efflux ratio (ER): PappB-A/PappA-B; for Caco2 A-B apparent permeability (Papp): apical-to-basolateral; for Caco2 A-B apparent permeability (Papp) / Caco2 B-A apparent permeability (Papp): 5 μM, HBSS pH 7.4, 120 min, 37° C.; for Caco2 B-A apparent permeability (Papp): basolateral-to-apical
Method: as §3

Sequence of Recombinant full length PARP2 (Q9UGN5 whole entry): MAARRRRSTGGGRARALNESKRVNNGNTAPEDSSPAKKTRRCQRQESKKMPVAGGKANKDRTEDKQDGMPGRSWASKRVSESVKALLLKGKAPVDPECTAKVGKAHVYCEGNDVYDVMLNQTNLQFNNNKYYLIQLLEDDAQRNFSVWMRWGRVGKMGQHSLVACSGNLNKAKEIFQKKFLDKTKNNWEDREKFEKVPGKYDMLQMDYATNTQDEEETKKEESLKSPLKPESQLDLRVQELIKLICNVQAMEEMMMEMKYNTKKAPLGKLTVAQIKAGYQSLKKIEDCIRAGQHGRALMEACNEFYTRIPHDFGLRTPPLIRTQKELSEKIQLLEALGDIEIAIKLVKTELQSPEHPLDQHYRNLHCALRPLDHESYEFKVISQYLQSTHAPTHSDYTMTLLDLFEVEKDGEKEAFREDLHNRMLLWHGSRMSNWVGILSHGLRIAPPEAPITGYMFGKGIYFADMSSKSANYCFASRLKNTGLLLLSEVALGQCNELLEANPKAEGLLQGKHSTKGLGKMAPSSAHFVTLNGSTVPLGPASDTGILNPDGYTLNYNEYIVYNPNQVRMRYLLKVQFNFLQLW
Sequence of Recombinant full length PARP1 (P09874 whole entry): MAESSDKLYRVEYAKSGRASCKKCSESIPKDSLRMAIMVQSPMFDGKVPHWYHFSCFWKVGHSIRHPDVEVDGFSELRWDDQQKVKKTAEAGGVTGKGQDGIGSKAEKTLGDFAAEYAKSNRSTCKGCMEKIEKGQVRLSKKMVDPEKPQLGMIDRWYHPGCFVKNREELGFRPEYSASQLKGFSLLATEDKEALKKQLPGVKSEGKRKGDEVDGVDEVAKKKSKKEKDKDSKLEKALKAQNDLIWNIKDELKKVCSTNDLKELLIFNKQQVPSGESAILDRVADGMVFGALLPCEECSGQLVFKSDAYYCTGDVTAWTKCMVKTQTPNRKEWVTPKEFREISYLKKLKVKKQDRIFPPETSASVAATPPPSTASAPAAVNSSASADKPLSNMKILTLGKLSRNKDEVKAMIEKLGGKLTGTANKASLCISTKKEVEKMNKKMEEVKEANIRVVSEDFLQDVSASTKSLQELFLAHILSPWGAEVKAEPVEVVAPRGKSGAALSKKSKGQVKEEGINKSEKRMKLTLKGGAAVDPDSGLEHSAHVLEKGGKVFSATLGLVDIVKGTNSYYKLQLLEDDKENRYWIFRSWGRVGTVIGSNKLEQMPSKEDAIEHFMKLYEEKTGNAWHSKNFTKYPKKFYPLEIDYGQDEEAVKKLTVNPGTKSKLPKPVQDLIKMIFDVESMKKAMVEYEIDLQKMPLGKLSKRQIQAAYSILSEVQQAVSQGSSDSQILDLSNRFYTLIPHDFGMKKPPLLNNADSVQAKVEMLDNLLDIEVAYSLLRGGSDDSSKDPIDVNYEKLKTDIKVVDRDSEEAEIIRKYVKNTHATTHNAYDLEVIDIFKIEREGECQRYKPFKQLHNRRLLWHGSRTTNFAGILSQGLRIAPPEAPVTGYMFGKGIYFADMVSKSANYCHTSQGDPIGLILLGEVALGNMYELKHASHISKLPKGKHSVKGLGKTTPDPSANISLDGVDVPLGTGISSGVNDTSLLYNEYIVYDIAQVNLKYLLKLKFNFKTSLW

Row | SMILES | IC50 [1] [µM] | IC50 [2] [µM] | IC50 [3] [µM] | efflux ratio at 120 min, 5 μM [4] | Papp A→B at 120 min, 5 μM [4] [nm/s] | Papp B→A at 120 min, 5 μM [4] [nm/s] | IC50 ([3]; Homo sapiens, DLD-1, 168 h) [µM] | Caco2 efflux ratio (ER) [5] | Caco2 A-B apparent permeability (Papp) [5] | Caco2 B-A apparent permeability (Papp) [5]
1 | CCc1cc2ncc([C@@H](C)N3CC(Oc4ccc(C(=O)NC)nc4F)C3)cc2[nH]c1=O (single isomer, unassigned; enantiomer 1) [Compound 45, (enantiomer 1)-5-((1-(1-(7-ethyl-6-oxo-5,6-dihydro-1,5-naphthyridin-3-yl)ethyl)azetidin-3-yl)oxy)-6-fluoro-N-methylpicolinamide] | 0.0064 | 0.365 | 0.0693 | 10.5 | 41.8 | 439 | – | – | – | –
2 | CCc1cc2cnc(CN3CC[C@@H](Oc4ccc(C(=O)NC)nc4)C3)cc2[nH]c1=O [Compound 63, (R)-5-((1-((3-ethyl-2-oxo-1,2-dihydro-1,6-naphthyridin-7-yl)methyl)pyrrolidin-3-yl)oxy)-N-methylpicolinamide] | 0.00703 | > 10 | – | 7.96 | 53.5 | 426 | 0.0054 | – | – | –
3 | CNC(=O)c1ccc(OC2CN(Cc3cnc4cc(C5CC5)c(=O)[nH]c4c3)C2)cn1 [Compound 6, 5-((1-((7-cyclopropyl-6-oxo-5,6-dihydro-1,5-naphthyridin-3-yl)methyl)azetidin-3-yl)oxy)-N-methylpicolinamide] | 0.007 | > 10 | – | 9.29 | 33.2 | 308 | 0.0621 | – | – | –
4 | CCc1cc2ncc(CN3CC[C@@H](Oc4ccc(C(=O)NC)nc4)C3)cc2[nH]c1=O [Compound 11, (R)-5-((1-((7-ethyl-6-oxo-5,6-dihydro-1,5-naphthyridin-3-yl)methyl)pyrrolidin-3-yl)oxy)-N-methylpicolinamide] | 0.0048 | > 10 | – | 9.69 | 41.3 | 400 | 0.006 | – | – | –
5 | CCc1cc2cnc([C@@H](C)N3CC(Oc4ccc(C(=O)NC)nc4)C3)cc2[nH]c1=O (single isomer, unassigned) [Compound 48, (enantiomer 1 or 2)-5-((1-(1-(3-ethyl-2-oxo-1,2-dihydro-1,6-naphthyridin-7-yl)ethyl)azetidin-3-yl)oxy)-N-methylpicolinamide] | 0.0051 | > 10 | 0.0219 | – | – | – | – | (ER = 2.51) | 8.96 10*−6 cm/s | 22.47 10*−6 cm/s
6 | CCc1cc2cnc([C@H](C)N3CC(Oc4ccc(C(=O)NC)nc4F)C3)cc2[nH]c1=O (single isomer, unassigned; enantiomer 1) [Compound 49, (enantiomer 1)-5-((1-(1-(3-ethyl-2-oxo-1,2-dihydro-1,6-naphthyridin-7-yl)ethyl)azetidin-3-yl)oxy)-6-fluoro-N-methylpicolinamide] | 0.0145 | > 10 | – | 8.64 | 34.6 | 299 | 0.0057 | – | – | –
7 | CCc1cc2ncc(CN3CC(Oc4cnc(C(=O)NC)c(F)c4)C3)cc2[nH]c1=O [Compound 2, 5-((1-((7-ethyl-6-oxo-5,6-dihydro-1,5-naphthyridin-3-yl)methyl)azetidin-3-yl)oxy)-3-fluoro-N-methylpicolinamide] | 0.0077 | > 10 | – | 19.2 | 14.7 | 283 | 0.288 | – | – | –
8 | CCc1cc2ncc([C@H](C)N3CC[C@@H](Oc4ccc(C(=O)NC)nc4)C3)cc2[nH]c1=O (single isomer, unassigned) [Compound 13, 5-(((R)-1-((enantiomer 1 or 2)-1-(7-ethyl-6-oxo-5,6-dihydro-1,5-naphthyridin-3-yl)ethyl)pyrrolidin-3-yl)oxy)-N-methylpicolinamide] | – | – | 0.0295 | – | – | – | – | (ER = 7.91) | 3.85 10*−6 cm/s | 30.43 10*−6 cm/s
9 | CCc1cc2ncc(CN3CCC(Nc4ccc(C(=O)NC)nc4)C3)cc2[nH]c1=O (stereo not drawn) [Compound 10, 5-((1-((7-ethyl-6-oxo-5,6-dihydro-1,5-naphthyridin-3-yl)methyl)pyrrolidin-3-yl)amino)-N-methylpicolinamide] | 0.0031 | > 10 | – | 39.1 | 5.7 | 224 | 0.0115 | – | – | –
10 | CCc1cc2ncc(CN3C[C@@H](F)[C@@H](Oc4ccc(C(=O)NC)nc4)C3)cc2[nH]c1=O [Compound 8, 5-(((3S, 4R)-1-((7-ethyl-6-oxo-5,6-dihydro-1,5-naphthyridin-3-yl)methyl)-4-fluoropyrrolidin-3-yl)oxy)-N-methylpicolinamide] | 0.0038 | > 10 | – | 11.8 | 24.5 | 288 | 0.0511 | – | – | –

Further lines, results first:

Row | IC50 [1] [µM] | IC50 [2] [µM] | IC50 [3] [µM] | efflux ratio at 120 min, 5 μM [4] | Papp A→B at 120 min, 5 μM [4] [nm/s] | Papp B→A at 120 min, 5 μM [4] [nm/s] | IC50 ([3]; Homo sapiens, DLD-1, 168 h) [µM] | Caco2 efflux ratio (ER) [5] | Caco2 A-B apparent permeability (Papp) [5] | Caco2 B-A apparent permeability (Papp) [5] | SMILES
11 | 0.0148 | > 10 | – | 2.16 | 118 | 254 | 0.0382 | – | – | – | CCc1nc2ccc(C(C)N3CC(Oc4ccc(C(=O)NC)nc4)C3)cc2[nH]c1=O (stereo not drawn) [Compound 20, 5-((1-(1-(2-ethyl-3-oxo-3,4-dihydroquinoxalin-6-yl)ethyl)azetidin-3-yl)oxy)-N-methylpicolinamide]
12 | 0.0352 | > 10 | – | 2.09 | 149 | 312 | 0.0189 | – | – | – | CCc1nc2ccc([C@H](C)N3CC(Oc4ccc(C(=O)NC)nc4)C3)cc2[nH]c1=O (single isomer, unassigned) [Compound 52, (enantiomer 1 or 2)-5-((1-(1-(2-ethyl-3-oxo-3,4-dihydroquinoxalin-6-yl)ethyl)azetidin-3-yl)oxy)-N-methylpicolinamide]
13 | 0.0093 | > 10 | – | 5.03 | 63.2 | 318 | 0.0576 | – | – | – | CCc1nc2ccc(CN3CC[C@@H](Oc4ccc(C(=O)NC)nc4)C3)cc2[nH]c1=O [Compound 28, (R)-5-((1-((2-ethyl-3-oxo-3,4-dihydroquinoxalin-6-yl)methyl)pyrrolidin-3-yl)oxy)-N-methylpicolinamide]
14 | 0.0073 | – | 0.0091 | – | – | – | – | (ER = 2.38) | 12.25 10*−6 cm/s | 29.21 10*−6 cm/s | CCc1nc2ccc([C@H](C)N3CC(Oc4ccc(C(=O)NC)nc4F)C3)cc2[nH]c1=O (single isomer, unassigned) [Compound 57, (enantiomer 1 or 2)-5-((1-(1-(2-ethyl-3-oxo-3,4-dihydroquinoxalin-6-yl)ethyl)azetidin-3-yl)oxy)-6-fluoro-N-methylpicolinamide]
15 | 0.0038 | 9.61 | – | 6.4 | 54 | 346 | 0.0159 | – | – | – | CCc1cc2cnc(C(C)N3CC(Oc4ccc(C(=O)NC)nc4)C3)cc2[nH]c1=O (stereo not drawn) [Compound 51, 5-((1-(1-(3-ethyl-2-oxo-1,2-dihydro-1,6-naphthyridin-7-yl)ethyl)azetidin-3-yl)oxy)-N-methylpicolinamide]
